Results reported in PubChem BioAssay (NCI).
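The concentration for 50% growth inhibition is given as GI50. TGI marks complete inhibition of growth.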

Legend:
Test in all cases: NCI-60 cell line screen, 384-well format
MDA-MB-231 breast = tested on: MDA-MB-231 breast
SN12C renal = tested on: SN12C renal
SF-539 CNS = tested on: SF-539 CNS
LOX IMVI melanoma = tested on: LOX IMVI melanoma
ACHN renal = tested on: ACHN renal
KM12 colon = tested on: KM12 colon
SK-MEL-5 melanoma = tested on: SK-MEL-5 melanoma
HOP-62 NSCLC = tested on: HOP-62 NSCLC
M14 melanoma = tested on: M14 melanoma
SNB-19 CNS = tested on: SNB-19 CNS
COLO 205 colon = tested on: COLO 205 colon
HT29 colon = tested on: HT29 colon
SK-MEL-2 melanoma = tested on: SK-MEL-2 melanoma
SNB-75 CNS = tested on: SNB-75 CNS
A549 NSCLC = tested on: A549 NSCLC
DU-145 prostate = tested on: DU-145 prostate
SF-268 CNS = tested on: SF-268 CNS
CCRF-CEM leukemia = tested on: CCRF-CEM leukemia
MDA-MB-435 melanoma = tested on: MDA-MB-435 melanoma
OVCAR-8 ovarian = tested on: OVCAR-8 ovarian
HCT-15 colon = tested on: HCT-15 colon
MDA-MB-468 breast = tested on: MDA-MB-468 breast
T-47D breast = tested on: T-47D breast
RXF 393 renal = tested on: RXF 393 renal
786-0 renal = tested on: 786-0 renal
SR leukemia = tested on: SR leukemia
OVCAR-3 ovarian = tested on: OVCAR-3 ovarian
NCI-H522 lung = tested on: NCI-H522 lung
NCI/ADR-RES ovarian = tested on: NCI/ADR-RES ovarian
SK-OV-3 ovarian = tested on: SK-OV-3 ovarian
SW-620 colon = tested on: SW-620 colon
NCI-H322M lung = tested on: NCI-H322M lung
SF-295 CNS = tested on: SF-295 CNS
UO-31 renal = tested on: UO-31 renal
EKVX NSCLC = tested on: EKVX NSCLC
BT-549 breast = tested on: BT-549 breast
OVCAR-4 ovarian = tested on: OVCAR-4 ovarian
K-562 leukemia = tested on: K-562 leukemia
IGROV1 ovarian = tested on: IGROV1 ovarian
SK-MEL-28 melanoma = tested on: SK-MEL-28 melanoma
MOLT-4 leukemia = tested on: MOLT-4 leukemia
UACC-257 melanoma = tested on: UACC-257 melanoma
NCI-H460 NSCLC = tested on: NCI-H460 NSCLC
NCI-H226 lung = tested on: NCI-H226 lung
PC-3 prostate = tested on: PC-3 prostate
TK-10 renal = tested on: TK-10 renal
U251 glioblastoma = tested on: U251 glioblastoma

NC1(c2ccc(-c3nc4ccn5c(=O)[nH]nc5c4cc3-c3ccccc3)cc2)CCC1
GI50 (MDA-MB-231 breast): 2.49 µM | TGI (MDA-MB-231 breast): 6.52 µM | GI50 (SN12C renal): 4.04 µM | TGI (SN12C renal): 16.3 µM | GI50 (SF-539 CNS): 0.815 µM | TGI (SF-539 CNS): 2.08 µM | GI50 (LOX IMVI melanoma): 1.58 µM | TGI (LOX IMVI melanoma): 2.95 µM | GI50 (ACHN renal): 1.29 µM | TGI (ACHN renal): 5.45 µM | GI50 (KM12 colon): 2.32 µM | TGI (KM12 colon): 7.07 µM | GI50 (SK-MEL-5 melanoma): 0.777 µM | TGI (SK-MEL-5 melanoma): 1.93 µM | GI50 (HOP-62 NSCLC): 2.68 µM | TGI (HOP-62 NSCLC): 7.93 µM | GI50 (M14 melanoma): 1.44 µM | TGI (M14 melanoma): 2.77 µM | GI50 (SNB-19 CNS): 2.55 µM | TGI (SNB-19 CNS): 7.45 µM | GI50 (COLO 205 colon): 0.712 µM | TGI (COLO 205 colon): 2.65 µM | GI50 (HT29 colon): 1.29 µM | TGI (HT29 colon): 2.69 µM | GI50 (SK-MEL-2 melanoma): 1.59 µM | TGI (SK-MEL-2 melanoma): 2.95 µM | GI50 (SNB-75 CNS): 0.239 µM | TGI (SNB-75 CNS): 1.78 µM | GI50 (A549 NSCLC): 2.05 µM | TGI (A549 NSCLC): 9.34 µM | GI50 (DU-145 prostate): 5.78 µM | TGI (DU-145 prostate): 17.4 µM | GI50 (SF-268 CNS): 2.73 µM | TGI (SF-268 CNS): 7.37 µM | GI50 (CCRF-CEM leukemia): 0.127 µM | TGI (CCRF-CEM leukemia): 1.16 µM | GI50 (MDA-MB-435 melanoma): 2.36 µM | TGI (MDA-MB-435 melanoma): 7.21 µM | GI50 (OVCAR-8 ovarian): 1.76 µM | TGI (OVCAR-8 ovarian): 3.96 µM | GI50 (HCT-15 colon): 1.4 µM | TGI (HCT-15 colon): 2.78 µM | GI50 (MDA-MB-468 breast): 0.0483 µM | TGI (MDA-MB-468 breast): 0.514 µM | GI50 (T-47D breast): 0.0272 µM | TGI (T-47D breast): 0.629 µM | GI50 (RXF 393 renal): 0.863 µM | TGI (RXF 393 renal): 2.23 µM | GI50 ([…]-0 renal): 1.07 µM | TGI (786-0 renal): 2.32 µM | GI50 (SR leukemia): 1.14 µM | TGI (SR leukemia): 2.36 µM | GI50 (OVCAR-3 ovarian): 0.859 µM | TGI (OVCAR-3 ovarian): 4.78 µM | GI50 (NCI-H522 lung): 2.39 µM | TGI (NCI-H522 lung): 6.5 µM | GI50 (NCI/ADR-RES ovarian): 3.18 µM | TGI (NCI/ADR-RES ovarian): 12.1 µM | GI50 (SK-OV-3 ovarian): 0.763 µM | TGI (SK-OV-3 ovarian): 2.3 µM | GI50 (SW-620 colon): 4.69 µM | TGI (SW-620 colon): 8.9 µM | GI50 (NCI-H322M lung): 2.44 µM | TGI (NCI-H322M lung): 10.2 µM | GI50 (SF-295 CNS): 1.34 µM | TGI (SF-295 CNS): 2.72 µM | GI50 (UO-31 renal): 2.2 µM | TGI (UO-31 renal): 6.72 µM | GI50 (EKVX NSCLC): 1.62 µM | TGI (EKVX NSCLC): 5.92 µM | GI50 (BT-549 breast): 0.875 µM | TGI (BT-549 breast): 2.52 µM | GI50 (OVCAR-4 ovarian): 2.79 µM | TGI (OVCAR-4 ovarian): 7.48 µM | GI50 (K-562 leukemia): 1.59 µM | TGI (K-562 leukemia): 3.03 µM | GI50 (IGROV1 ovarian): 0.188 µM | TGI (IGROV1 ovarian): 2.39 µM | GI50 (SK-MEL-28 melanoma): 1.2 µM | TGI (SK-MEL-28 melanoma): 2.5 µM | GI50 (MOLT-4 leukemia): 0.131 µM | TGI (MOLT-4 leukemia): 0.632 µM | GI50 (UACC-257 melanoma): 1.54 µM | TGI (UACC-257 melanoma): 2.89 µM | GI50 (NCI-H460 NSCLC): 0.463 µM | TGI (NCI-H460 NSCLC): 2.86 µM | GI50 (NCI-H226 lung): 2.08 µM | TGI (NCI-H226 lung): 7.36 µM | GI50 (PC-3 prostate): 0.139 µM | TGI (PC-3 prostate): 3.21 µM | GI50 (TK-10 renal): 1.34 µM | TGI (TK-10 renal): 3.9 µM | GI50 (U251 glioblastoma): 1.86 µM | TGI (U251 glioblastoma): 4.53 µM
